In PubChem BioAssay AID248 (DTP/NCI, 2004):
Inconclusive results and toxic doses are left out. Rule as the data show it: active = T/C of 150% or more; inactive = T/C below 125%.

Tested on: L1210 leukemia ip in BDF1 mice, survival T/C
Assay: NCI In Vivo Anticancer Drug Screen. Data for tumor model L1210 Leukemia (intraperitoneal) in B6D2F1 (BDF1) mice
Settings: endpoint: mean survival time, higher = longer survival
How it was run: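 Survival endpoint. Drug-treated group vs vehicle group, expressed as T divided by C. Tumor passaged by transplantation.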

[1] = dose: 100.0 mg/kg/injection, schedule: Q01DX009 (ip), vehicle: saline
[2] = dose: 100.0 mg/kg/injection, schedule: Q04DX003 (ip), vehicle: saline
[3] = dose: 200.0 mg/kg/injection, schedule: Q01DX009 (ip), vehicle: saline
[4] = dose: 200.0 mg/kg/injection, schedule: Q04DX003 (ip), vehicle: saline
[5] = dose: 400.0 mg/kg/injection, schedule: Q01DX009 (ip), vehicle: saline
[6] = dose: 400.0 mg/kg/injection, schedule: Q04DX003 (ip), vehicle: saline
[7] = dose: 100.0 mg/kg/injection, schedule: Q01DX001 (ip), vehicle: saline with Tween-80
[8] = dose: 200.0 mg/kg/injection, schedule: Q01DX001 (ip), vehicle: saline with Tween-80
[9] = dose: 400.0 mg/kg/injection, schedule: Q01DX001 (ip), vehicle: saline with Tween-80
[10] = dose: 25.0 mg/kg/injection, schedule: Q01DX009 (ip), vehicle: saline
[11] = dose: 100.0 mg/kg/injection, schedule: Q01DX009 (ip), vehicle: saline with Tween-80
[12] = dose: 200.0 mg/kg/injection, schedule: Q01DX009 (ip), vehicle: saline with Tween-80
[13] = dose: 100.0 mg/kg/injection, schedule: Q04DX003 (ip), vehicle: Klucel (hydroxypropylcellulose) (HPC)
[14] = dose: 200.0 mg/kg/injection, schedule: Q04DX003 (ip), vehicle: Klucel (hydroxypropylcellulose) (HPC)
[15] = dose: 400.0 mg/kg/injection, schedule: Q04DX003 (ip), vehicle: Klucel (hydroxypropylcellulose) (HPC)
[16] = dose: 100.0 mg/kg/injection, schedule: Q01DX001 (ip), vehicle: carboxymethylcellulose (CMC)
[17] = dose: 100.0 mg/kg/injection, schedule: Q01DX001 (ip), vehicle: saline
[18] = dose: 200.0 mg/kg/injection, schedule: Q01DX001 (ip), vehicle: saline
[19] = dose: 400.0 mg/kg/injection, schedule: Q01DX001 (ip), vehicle: saline
[20] = dose: 100.0 mg/kg/injection, schedule: Q01DX009 (ip), vehicle: Klucel (hydroxypropylcellulose) (HPC)
[21] = dose: 200.0 mg/kg/injection, schedule: Q01DX009 (ip), vehicle: Klucel (hydroxypropylcellulose) (HPC)
[22] = dose: 400.0 mg/kg/injection, schedule: Q01DX009 (ip), vehicle: Klucel (hydroxypropylcellulose) (HPC)

Measured: T/C

OC1COC(O)C(O)C1O (centres undefined)
inactive: [1] 98 % of control | [2] 104 % of control | [3] 103 % of control | [4] 111 % of control | dose: 250.0 mg/kg/injection, schedule: Q04DX003 (ip), vehicle: saline 93 % of control | [5] 104 % of control | [6] 104 % of control | dose: 500.0 mg/kg/injection, schedule: Q04DX003 (ip), vehicle: saline 96 % of control | dose: 1000.0 mg/kg/injection, schedule: Q04DX003 (ip), vehicle: saline 102 % of control | dose: 2000.0 mg/kg/injection, schedule: Q04DX003 (ip), vehicle: saline 91 % of control

CCC(C)Sc1ccc(C)cc1 (centres undefined)
inactive: dose: 75.0 mg/kg/injection, schedule: Q01DX009 (ip), vehicle: Klucel (hydroxypropylcellulose) (HPC) 98 % of control | dose: 150.0 mg/kg/injection, schedule: Q01DX009 (ip), vehicle: Klucel (hydroxypropylcellulose) (HPC) 102 % of control | dose: 300.0 mg/kg/injection, schedule: Q01DX009 (ip), vehicle: Klucel (hydroxypropylcellulose) (HPC) 93 % of control

CCCCCCCCCCCCC1CC2CCCCC2C2CCCCC12 (centres undefined)
inactive: [7] 95 % of control | [8] 97 % of control | [9] 89 % of control

CC(=O)NS(=O)(=O)CCCC[n+]1c(C)oc2ccc(-c3ccccc3)cc21
inactive: dose: 100.0 mg/kg/injection, schedule: Q04DX003 (sc), vehicle: olive oil, sesame oil, peanut oil 98 % of control | dose: 200.0 mg/kg/injection, schedule: Q04DX003 (sc), vehicle: olive oil, sesame oil, peanut oil 100 % of control | dose: 400.0 mg/kg/injection, schedule: Q04DX003 (sc), vehicle: olive oil, sesame oil, peanut oil 100 % of control

CCCCCCCCCCCc1cc(=O)n(-c2cc(Cl)ccc2Cl)n1C
inactive: dose: 100.0 mg/kg/injection, schedule: Q04DX003 (ip), vehicle: saline with Tween-80 98 % of control

CC1COCC(C)N1 (centres undefined)
inactive: [10] 101 % of control | dose: 50.0 mg/kg/injection, schedule: Q01DX009 (ip), vehicle: saline 93 % of control | [1] 90 % of control | [3] 90 % of control | [5] 92 % of control

O=C(CNC(=O)Nc1ccc(Cl)c(Cl)c1)N/N=C/c1ccc(F)cc1
inactive: [11] 98 % of control | [12] 96 % of control | dose: 400.0 mg/kg/injection, schedule: Q01DX009 (ip), vehicle: saline with Tween-80 98 % of control

O=C(CS(=O)(=O)Cc1ccccc1)c1ccccc1
inactive: [13] 98 % of control | [14] 98 % of control | [15] 101 % of control

CCOC(=O)C(=CC(CC)C(=O)OCC)C(=O)OCC (centres undefined) (tested in a mixture with another compound)
inactive: [2] 93 % of control | [4] 93 % of control | [6] 89 % of control

COc1ccc(C(=O)CBr)cc1OC
inactive: [16] 96 % of control

[Cl][Hg][CH2]C1COC([CH2][Hg][Cl])CO1 (centres undefined)
inactive: dose: 25.0 mg/kg/injection, schedule: Q01DX001 (ip), vehicle: carboxymethylcellulose (CMC) 90 % of control | dose: 50.0 mg/kg/injection, schedule: Q01DX001 (ip), vehicle: carboxymethylcellulose (CMC) 92 % of control | [16] 95 % of control

CC(C)(C)C([NH-])=O.CC(C)(C)C([NH-])=O.[Cl][Pt+2][Cl]
inactive: dose: 6.25 mg/kg/injection, schedule: Q01DX009 (ip), vehicle: saline 86 % of control | dose: 12.5 mg/kg/injection, schedule: Q01DX009 (ip), vehicle: saline 94 % of control | dose: 12.5 mg/kg/injection, schedule: Q04DX003 (ip), vehicle: saline 116 % of control | [10] 101 % of control | dose: 25.0 mg/kg/injection, schedule: Q04DX003 (ip), vehicle: saline 102 % of control | dose: 50.0 mg/kg/injection, schedule: Q04DX003 (ip), vehicle: saline 109 % of control

CC(C)N(N=O)C(C)C
inactive: dose: 50.0 mg/kg/injection, schedule: Q01DX001 (ip), vehicle: saline 104 % of control | [17] 104 % of control | [18] 102 % of control | [19] 98 % of control

CC[N+](C)(C)C1CCCCC1
inactive: dose: 75.0 mg/kg/injection, schedule: Q01DX001 (ip), vehicle: saline 94 % of control

CC(=O)OCC1OC(n2ccc(=O)[nH]c2=O)C(OC(C)=O)C1OC(C)=O (centres undefined)
inactive: [17] 100 % of control | [18] 103 % of control | [19] 106 % of control

O=C(NCc1ccccc1Cl)Nc1ccccc1F
inactive: [20] 106 % of control | [21] 98 % of control | [22] 115 % of control

COC(c1ccccc1)(c1ccccc1)C(C)O (centres undefined)
inactive: dose: 50.0 mg/kg/injection, schedule: Q01DX009 (ip), vehicle: saline with Tween-80 87 % of control | [11] 97 % of control | [12] 103 % of control

Oc1cc(Cl)ccc1Cl
inactive: dose: 75.0 mg/kg/injection, schedule: Q01DX009 (ip), vehicle: saline 90 % of control | [2] 95 % of control | dose: 150.0 mg/kg/injection, schedule: Q01DX009 (ip), vehicle: saline 101 % of control | [4] 100 % of control | dose: 300.0 mg/kg/injection, schedule: Q01DX009 (ip), vehicle: saline 96 % of control | [6] 98 % of control

O=C(/C=C/C(=O)Oc1ccc(Cl)cc1Cl)Oc1ccc(Cl)cc1Cl
inactive: [20] 94 % of control | [13] 111 % of control | [21] 95 % of control | [14] 100 % of control | [22] 97 % of control | [15] 100 % of control

Nc1cccc(OCc2cccc([N+](=O)[O-])c2)c1
inactive: [16] 101 % of control | dose: 200.0 mg/kg/injection, schedule: Q01DX001 (ip), vehicle: carboxymethylcellulose (CMC) 90 % of control | dose: 400.0 mg/kg/injection, schedule: Q01DX001 (ip), vehicle: carboxymethylcellulose (CMC) 86 % of control

Cc1nnc2c3ccccc3cnn12
inactive: dose: 75.0 mg/kg/injection, schedule: Q01DX001 (ip), vehicle: carboxymethylcellulose (CMC) 98 % of control | dose: 150.0 mg/kg/injection, schedule: Q01DX001 (ip), vehicle: carboxymethylcellulose (CMC) 97 % of control | dose: 300.0 mg/kg/injection, schedule: Q01DX001 (ip), vehicle: carboxymethylcellulose (CMC) 98 % of control

O=C(O)CCCCCCC(=O)c1ccccc1
inactive: [7] 98 % of control | [8] 95 % of control | [9] 98 % of control
